Results from patent publication US9440980B2, “Remedy for diabetes” (EA Pharma Co., Ltd., priority 2007, dated 2016).

How the values were obtained:
isolated adipocytes = test: Measurement of glucose uptake activity in isolated rat adipocytes (2-[14C]-deoxy-D-glucose); type: cell-based; settings: Adipocyte, glucose uptake of insulin (100 nM) = 100%
Description: A male Wistar rat was decapitated and exsanguinated, and then a paratesticular adipose tissue was resected therefrom after laparotomy. The tissue was cut in a KRH (Krebs-Ringer HEPES: 130 mM NaCl, 4.7 mM KCl, 1.2 mM KH2PO4, 1.2 mM MgSO4, 1 mM CaCl2, 25 mM HEPES) containing a BSA (bovine serum albumin), a collagenase (type I) was added thereto, and the resultant was subjected to a digestive treatment for about 40 minutes to obtain isolated adipocytes. The buffer was replaced to remove the collagenase, and a 2% BSA/KRH solution was added thereto, whereby the adipocytes were floated again to obtain a adipocytes suspension.
The glucose uptake activity of a test substance compound was evaluated in accordance with Non-Patent Document 14: Simpson et al., Annual Review of Biochemistry, 55, 1059, (1986). Thus, 200 μl of the adipocytes suspension was dispensed into each polystyrene test tube, 100 μl of a solution containing the test substance compound was added thereto, and the test tube was shaken and incubated at 37° C. for 30 minutes. The glucose uptake activity was evaluated by measuring the amount of 2-[^14C(U)]-deoxy-D-glucose uptaken per unit time. Thus, the 2-[^14C(U)]-deoxy-D-glucose was added to the preincubated adipocytes suspension at the final concentration of 0.5 μCi/sample, and after 5 minutes, cytochalasin B was added thereto at the final concentration of 10 μM to stop the glucose uptake. Dinonyl phthalate was superposed over the solution, the resultant was centrifuged to separate the fat cells from the buffer, and the amount of the 2-[^14C(U)]-deoxy-D-glucose contained in the fat cell layer was measured by a liquid scintillation counter, whereby the uptaken glucose amount was determined. The glucose uptake of insulin (100 nM) was evaluated in the same manner and considered to be 100%, and thus the EC50 value of each compound was obtained.

HLF cell membrane = test: Binding assay of 3H-labeled Compound 1 using HLF cell membrane; set-up: species or system human; settings: FIG. 4
Description: A cell membrane of a human liver-derived HLF cell was prepared as follows. HLF cells were approximately confluently cultured in a Dulbecco MEM medium containing 10% FCS in a cell culture dish having a diameter of 15 cm. The HLF cells cultured in 30 dishes were scraped by a cell scraper in the presence of an HMEE buffer (20 mM HEPES-KOH, 1 mM EDTA, 1 mM EGTA, and 2 mM MgCl2) to obtain about 30 ml of a cell suspension. The suspension was homogenized using a TEFLON (registered trademark) homogenizer (ice temperature, 1000 rpm, 15 stroke) and centrifuged at a low rate (1500 rpm, 5 minutes). […]
The binding assay of the ^3H-labeled Compound 1 on thus obtained cell membrane was carried out as follows. […] The filter plate was well washed with a TBS (20 mM Tris-HCl, 0.15 M NaCl, pH 7.4) containing 0.05% Twee-20 and sufficiently dried, 30 μl of a liquid scintillator (Microscinti 0, Packard) was added to the filter plate, and the ^3H count was measured by Topcount (Packard). […]
The inhibitory activity of each of the probe molecule compounds synthesized in Examples 2 and 7 to 10 against the binding of the ^3H-labeled Compound 1 to the HLF cell membrane was measured by the method described in Example 14 to confirm whether the probe compound could be bound to the binding protein like Compound 1. […]

Gβ1γ2-Myc = target: T1, Gβ1γ2-Myc (Homo sapiens, UniProt P62873); test: Gβ binding ability using Gβ-expressing insect cell extract solution (PD10 method); settings: binding strength Compound 1>Compound 3>Compound 6, FIG. 8
T1 construct: made in house; host or cells: Sf21 insect cells (baculovirus), unpurified Triton X-100 extract
T1 sequence (P62873 whole entry): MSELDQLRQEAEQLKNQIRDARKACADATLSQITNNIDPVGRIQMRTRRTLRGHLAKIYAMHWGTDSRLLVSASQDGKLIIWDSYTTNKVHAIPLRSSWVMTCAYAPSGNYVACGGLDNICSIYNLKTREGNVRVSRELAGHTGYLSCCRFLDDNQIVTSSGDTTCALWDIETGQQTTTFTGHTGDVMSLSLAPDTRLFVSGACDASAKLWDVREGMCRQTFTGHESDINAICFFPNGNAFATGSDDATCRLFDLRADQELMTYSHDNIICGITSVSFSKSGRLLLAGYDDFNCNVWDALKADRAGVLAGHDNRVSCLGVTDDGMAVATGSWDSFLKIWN
T1 sequence (P59768 with tags, fused parts or gaps partner limits assumed): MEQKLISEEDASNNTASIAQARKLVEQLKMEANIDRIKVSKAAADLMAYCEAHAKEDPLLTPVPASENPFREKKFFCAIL
Description: The PD10 method was carried out as follows. To a microtube were added 250 μl of an RBA buffer, 100 μl of an RBA buffer containing 0 or 500 μM of the unlabeled Compound 1, 100 μl of the above extract solution, and 50 μl of an RBA buffer containing 2.5 μM of the ^3H-labeled Compound 1 successively, and the resultant mixture was stirred and left at room temperature for 1 hour. The entire reaction solution (0.5 ml) was added to a PD10 column sufficiently substituted with the RBA buffer, 2 ml of the RBA buffer was passed through the PD10 column, and thereafter further eluate by 1.5 ml of the RBA buffer was collected as a high-molecular fraction containing the protein, 15 ml of a liquid scintillator was added thereto, and the amount of the ^3H-labeled Compound 1 contained in the high-molecular fraction was measured by a scintillation counter. The count of the sample added with the unlabeled Compound 1 at the final concentration of 100 μM was considered to correspond to the nonspecific binding, the difference between the nonspecific binding count and the count of the sample not added with the unlabeled Compound 1 was considered to correspond to the specific binding, and thus the amount of the binding protein contained in the extract solution was evaluated.
Using the frozen insect cell Sf21 expressing the Gβ1, Myc-Gγ2, and Gαi1-His prepared in Example 19 (8), 10^7 cells were melted and suspended in 1.3 ml of an RBA buffer containing 1% Triton X-100 (75 mM Tris-HCl, 12.5 mM MgCl2, 2 mM EDTA, pH 7.4). […]
The inhibitory activity against the binding of the ^3H-labeled Compound 1 to the Gβ1γ2-Myc was considered to correspond to the activity of the compounds for binding to the Gβ1γ2-Myc. Thus, the activity of each of Compounds 1, 3, and 6 for binding to the Gβ1γ2-Myc was measured using the above extract solution. The activity of the ^3H-labeled Compound 1 for binding to the protein contained in the extract solution was measured by the PD10 method described in Example 15 (1). […]

[1] = tested on: Compound 6-induced Akt phosphorylation in differentiated 3T3L1 cell; test: Inhibition of Compound 6-induced Akt phosphorylation in differentiated 3T3L1 adipocytes; type: cell-based; settings: 15 minutes pretreatment, FIG. 12
Description: The inhibitory activity of the inhibitor TGX-115 specific to the phosphoinositide 3-kinase (PI3-kinase) β and δ against Compound 6-induced Akt phosphorylation was measured by using a differentiated 3T3L1 cell converted to a adipocyte as follows. […] The differentiated 3T3L1 cells were seeded in a Dulbecco MEM medium containing 10% FCS in a 96-well plate (Collagen type I coated plate, IWAKI, Product No. 4860-010) at a ratio of 4×10^4 cells/well, cultured at 37° C. for about 16 hours in the presence of 5% CO2 to achieve sufficient attachment, and the medium was removed by suction. […] Then, 10 μl of a 0.1% BSA/Dulbecco MEM medium containing 3 mM of Compound 6 was added thereto, and a treatment was carried out at 37° C. for 10 minutes in the presence of 5% CO2.

| SMILES | EC50 (isolated adipocytes) | other results |
| --- | --- | --- |
| NCCOCCOc1ccccc1[C@@H]1C2=C(CNC2=O)N[C@@H]2CCCC[C@H]2N1C(=O)CCc1ccccn1 [Compound 7] |  | inhibitory activity against the binding of the 3H-labeled Compound 1 to the HLF cell membrane (HLF cell membrane): equal to Compound 2 |
| Cc1ccccc1Oc1cccc2c(=O)cc(N3CCOCC3)[nH]c12 [TGX-115] |  | inhibition of Akt phosphorylation by Compound 6 [1]: clearly inhibited |

The next lines start with results.

| EC50 (isolated adipocytes) | SMILES | other results |
| --- | --- | --- |
| 1000 nM | O=C1NCC2=C1[C@@H](c1cccc3ccoc13)N(C(=O)C1CC1)[C@@H]1CCCC[C@H]1N2 [Compound 5] |  |
| 6 nM | O=C1NCC2=C1[C@@H](c1csc3ccccc13)N(C(=O)CCc1ccccn1)[C@@H]1CCCC[C@H]1N2 [Compound 4] |  |
| 14 nM | COc1ccccc1[C@@H]1C2=C(CNC2=O)N[C@@H]2CCCC[C@H]2N1C(=O)CCc1nccs1 [Compound 3] | binding to Gβ1γ2-Myc (inhibition of 3H-labeled Compound 1 binding) (Gβ1γ2-Myc): could be bound to the Gβγ2-Myc |
